Measured values reported in ChEMBL document CHEMBL1147578, “Design, synthesis, and SAR of anthranilamide-based factor Xa inhibitors with improved functional activity” (Bioorg Med Chem Lett, 2004).
pIC50, pKi: −log10 of the molar value.

Experiments:
[1] = target: Vitamin K-dependent protein C (Homo sapiens, UniProt P04070); test: Inhibitory activity against activated protein C
Homo sapiens = organism: Homo sapiens; test: Concentration required to double the lag time of maximum thrombin generation in human plasma-based thrombin generation assay; assay type: functional
Serine protease 1 = Serine protease 1 (Homo sapiens, UniProt P07477); test: Inhibitory activity against trypsin.
Prothrombin = Prothrombin (Homo sapiens, UniProt P00734); test: Inhibitory activity against thrombin.
Plasma kallikrein = Plasma kallikrein (Homo sapiens, UniProt P03952); test: Inhibitory activity against kallikrein
Coagulation factor X [2] = target: T1, Coagulation factor X (Homo sapiens, UniProt P00742); test: In vitro inhibitory activity against coagulation factor X.
[3] = target: Tissue-type plasminogen activator (Homo sapiens, UniProt P00750); test: Inhibitory activity against tissue type plasminogen activator.
[4] = Oral bioavailability in rat (dose 6 mg/kg); assay type: ADME, organism-based; conditions: in vivo
Plasminogen = Plasminogen (Homo sapiens, UniProt P00747); test: Inhibitory activity against plasmin.
Coagulation factor X [5] = target: T1, Coagulation factor X; test: In vitro inhibitory activity against Coagulation factor X
Rattus norvegicus [6] = organism: Rattus norvegicus; test: Effective dose required for antithrombotic activity in rat vena cava stasis model; assay type: functional
[7] = Oral bioavailability in dog; assay type: ADME, organism-based, Canis lupus familiaris; conditions: in vivo
Coagulation factor X [8] = target: T1, Coagulation factor X; test: Inhibitory activity against Coagulation factor X
Oryctolagus cuniculus [9] = organism: Oryctolagus cuniculus; test: Percent inhibition of thrombus formation in rabbit deep vein thrombosis at 0.83 uM; assay type: functional
Oryctolagus cuniculus [10] = organism: Oryctolagus cuniculus; test: Percent inhibition of thrombus formation in rabbit deep vein thrombosis at 0.25 uM; assay type: functional
[11] = Plasma clearance after intravenous administration of 0.4 mg/kg of dose in rats was determined; assay type: ADME, organism-based; set-up: dose 0.4 mg/kg, route intravenous; conditions: rat
Rattus norvegicus [12] = test: Volume of distribution after intravenous administration of 0.4 mg/kg of dose in rats was determined; conditions: in vivo
[13] = Half life after intravenous administration was determined in rats at 0.4 mg/kg; conditions: rat, in vivo
[14] = Oral bioavailability in rats at 6 mg/kg; assay type: ADME, organism-based; conditions: rat, in vivo

Chain of Plasma kallikrein (P03952 20-390 limits assumed): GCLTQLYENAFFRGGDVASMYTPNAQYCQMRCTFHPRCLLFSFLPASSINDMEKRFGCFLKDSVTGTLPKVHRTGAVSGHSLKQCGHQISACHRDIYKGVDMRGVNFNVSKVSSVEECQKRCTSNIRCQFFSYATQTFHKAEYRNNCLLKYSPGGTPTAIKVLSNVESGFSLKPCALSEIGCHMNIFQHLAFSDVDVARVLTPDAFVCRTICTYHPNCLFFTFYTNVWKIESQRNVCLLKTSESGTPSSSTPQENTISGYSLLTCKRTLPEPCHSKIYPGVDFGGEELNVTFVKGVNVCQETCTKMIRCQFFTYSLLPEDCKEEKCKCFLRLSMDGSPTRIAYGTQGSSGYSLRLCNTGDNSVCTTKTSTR
Chain of Plasma kallikrein (P03952 391-638 limits assumed): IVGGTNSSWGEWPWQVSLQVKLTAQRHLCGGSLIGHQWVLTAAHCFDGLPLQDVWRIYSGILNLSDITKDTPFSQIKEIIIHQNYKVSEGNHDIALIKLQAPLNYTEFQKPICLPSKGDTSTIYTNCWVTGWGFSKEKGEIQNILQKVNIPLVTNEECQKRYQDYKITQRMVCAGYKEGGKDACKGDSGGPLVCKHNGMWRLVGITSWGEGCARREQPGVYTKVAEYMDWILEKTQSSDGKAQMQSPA
Chain of Vitamin K-dependent protein C (P04070 43-197 limits assumed): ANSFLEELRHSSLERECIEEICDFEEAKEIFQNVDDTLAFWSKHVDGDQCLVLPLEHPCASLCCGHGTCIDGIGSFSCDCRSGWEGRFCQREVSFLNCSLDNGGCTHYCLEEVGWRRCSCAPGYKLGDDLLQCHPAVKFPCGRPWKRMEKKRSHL
Chain of Vitamin K-dependent protein C (P04070 212-461 limits assumed): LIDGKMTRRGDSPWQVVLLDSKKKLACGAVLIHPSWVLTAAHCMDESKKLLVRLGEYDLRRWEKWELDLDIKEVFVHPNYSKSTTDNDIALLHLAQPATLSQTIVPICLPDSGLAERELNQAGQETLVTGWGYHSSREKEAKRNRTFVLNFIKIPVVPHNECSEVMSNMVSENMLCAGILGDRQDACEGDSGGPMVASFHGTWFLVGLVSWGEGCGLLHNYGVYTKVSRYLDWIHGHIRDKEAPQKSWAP
Chain of Serine protease 1 (P07477 whole entry): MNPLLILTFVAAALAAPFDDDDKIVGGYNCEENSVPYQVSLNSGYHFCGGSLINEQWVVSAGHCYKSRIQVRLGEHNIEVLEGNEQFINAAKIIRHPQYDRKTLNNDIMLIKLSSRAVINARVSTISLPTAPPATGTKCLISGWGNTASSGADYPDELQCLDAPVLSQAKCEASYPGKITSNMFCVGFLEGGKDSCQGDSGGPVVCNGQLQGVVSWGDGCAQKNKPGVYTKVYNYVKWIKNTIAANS
Chain of Plasminogen (P00747 97-580 limits assumed): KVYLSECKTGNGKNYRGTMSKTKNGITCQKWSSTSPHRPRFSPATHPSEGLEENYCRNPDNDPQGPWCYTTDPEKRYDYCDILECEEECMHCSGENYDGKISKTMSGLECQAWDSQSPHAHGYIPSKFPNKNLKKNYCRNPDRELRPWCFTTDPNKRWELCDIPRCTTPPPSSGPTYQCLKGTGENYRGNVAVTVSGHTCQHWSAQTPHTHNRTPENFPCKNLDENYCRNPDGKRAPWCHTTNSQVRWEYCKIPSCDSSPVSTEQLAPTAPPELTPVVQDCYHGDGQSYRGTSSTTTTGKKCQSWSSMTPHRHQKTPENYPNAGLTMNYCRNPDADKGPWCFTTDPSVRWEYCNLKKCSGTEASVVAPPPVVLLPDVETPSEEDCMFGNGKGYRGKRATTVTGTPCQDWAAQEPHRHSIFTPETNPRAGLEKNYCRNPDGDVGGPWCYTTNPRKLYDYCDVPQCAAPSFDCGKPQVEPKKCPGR
Chain of Plasminogen (P00747 581-810 limits assumed): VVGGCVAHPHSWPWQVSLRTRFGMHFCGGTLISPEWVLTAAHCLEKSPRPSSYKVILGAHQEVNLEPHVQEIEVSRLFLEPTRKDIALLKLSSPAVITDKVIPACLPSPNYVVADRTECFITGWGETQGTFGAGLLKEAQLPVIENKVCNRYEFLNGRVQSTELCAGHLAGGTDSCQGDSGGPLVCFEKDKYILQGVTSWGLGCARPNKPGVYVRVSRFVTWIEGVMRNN
T1 sequence (P00742 41-179 limits assumed): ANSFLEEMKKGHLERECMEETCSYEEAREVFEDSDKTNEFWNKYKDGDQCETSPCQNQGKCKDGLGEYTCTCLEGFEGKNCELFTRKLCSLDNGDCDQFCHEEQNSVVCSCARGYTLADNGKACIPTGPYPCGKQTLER
T1 sequence (P00742 235-488 limits assumed): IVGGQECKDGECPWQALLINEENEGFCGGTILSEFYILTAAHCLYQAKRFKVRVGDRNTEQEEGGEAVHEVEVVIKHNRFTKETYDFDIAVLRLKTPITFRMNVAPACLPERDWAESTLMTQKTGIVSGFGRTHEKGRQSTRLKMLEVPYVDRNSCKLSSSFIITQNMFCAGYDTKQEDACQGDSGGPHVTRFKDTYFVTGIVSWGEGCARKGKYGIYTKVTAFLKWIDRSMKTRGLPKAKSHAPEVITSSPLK
Chain of Tissue-type plasminogen activator (P00750 whole entry): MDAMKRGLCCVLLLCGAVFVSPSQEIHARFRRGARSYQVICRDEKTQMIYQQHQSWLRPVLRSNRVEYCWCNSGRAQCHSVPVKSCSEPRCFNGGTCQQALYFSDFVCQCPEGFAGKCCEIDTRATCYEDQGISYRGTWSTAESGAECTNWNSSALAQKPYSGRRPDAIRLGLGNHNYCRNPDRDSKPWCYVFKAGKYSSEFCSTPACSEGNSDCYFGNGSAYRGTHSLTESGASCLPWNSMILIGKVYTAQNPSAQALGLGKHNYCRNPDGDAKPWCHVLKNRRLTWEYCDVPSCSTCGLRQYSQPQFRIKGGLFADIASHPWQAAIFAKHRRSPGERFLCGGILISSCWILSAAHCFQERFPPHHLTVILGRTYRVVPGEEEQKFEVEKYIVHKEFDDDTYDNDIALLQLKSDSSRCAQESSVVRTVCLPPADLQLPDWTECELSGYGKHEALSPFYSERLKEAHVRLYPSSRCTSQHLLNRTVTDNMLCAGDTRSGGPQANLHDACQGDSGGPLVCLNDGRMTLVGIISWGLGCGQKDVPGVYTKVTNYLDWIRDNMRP

## N=C1NCCN1Cc1ccc(C(=O)Nc2ccc(Cl)cc2C(=O)Nc2ccc(Cl)cn2)cc1
[1]
  pIC50: < 4.96
Homo sapiens
  Activity: 0.58 µM
Serine protease 1
  pIC50: < 4.96
Prothrombin
  pIC50: < 4.96
Plasma kallikrein
  pIC50: 6.68
Coagulation factor X [2]
  pIC50: 8.82
[3]
  pIC50: < 4.96
[4]
  bioavailability: < 1%
Plasminogen
  pIC50: < 4.96
Coagulation factor X [5]
  pKi: 9.30

## COc1cc(Cl)cc(C(=O)Nc2ccc(Cl)cn2)c1NC(=O)c1scc(CN(C)C2=NCCO2)c1Cl
Rattus norvegicus [6]
  ED50: 0.8 µM
[7]
  bioavailability: 40%

## C[N+](C)(C)Cc1ccc(C(=O)Nc2ccc(Cl)cc2C(=O)Nc2ccc(Cl)cn2)cc1
[1]
  pIC50: < 4.96
Homo sapiens
  Activity: 0.3 µM
Serine protease 1
  pIC50: < 4.96
Prothrombin
  pIC50: < 4.96
Plasma kallikrein
  pIC50: 6.89
Coagulation factor X [2]
  pIC50: 9.10
[3]
  pIC50: < 4.96
[4]
  bioavailability: < 1%
Plasminogen
  pIC50: < 4.96
Coagulation factor X [5]
  pKi: 9.00

## CN(Cc1ccc(C(=O)Nc2ccc(Cl)cc2C(=O)Nc2ccc(Cl)cn2)cc1)C(=N)N
[1]
  pIC50: < 4.96
Homo sapiens
  Activity: 0.38 µM
Serine protease 1
  pIC50: < 4.96
Prothrombin
  pIC50: < 4.96
Plasma kallikrein
  pIC50: 6.42
Coagulation factor X [2]
  pIC50: 9.00
[3]
  pIC50: < 4.96
[4]
  bioavailability: < 1%
Plasminogen
  pIC50: < 4.96
Coagulation factor X [5]
  pKi: 10.00

## CN1CCN=C1N(C)Cc1ccc(C(=O)Nc2ccc(Cl)cc2C(=O)Nc2ccc(Cl)cn2)cc1
[1]
  pIC50: < 4.96
Homo sapiens
  Activity: 0.3 µM
Serine protease 1
  pIC50: < 4.96
Prothrombin
  pIC50: < 4.96
Plasma kallikrein
  pIC50: 6.52
Coagulation factor X [2]
  pIC50: 9.52
[3]
  pIC50: < 4.96
[4]
  bioavailability: < 1%
Plasminogen
  pIC50: < 4.96
Coagulation factor X [5]
  pKi: 9.52

## CC(=N)N(C)Cc1ccc(C(=O)Nc2ccc(Cl)cc2C(=O)Nc2ccc(Cl)cn2)cc1
[1]
  pIC50: < 4.96
Homo sapiens
  Activity: 0.5 µM
Serine protease 1
  pIC50: < 4.96
Prothrombin
  pIC50: < 4.96
Plasma kallikrein
  pIC50: 6.30
[3]
  pIC50: < 4.96
[4]
  bioavailability: < 1%
Plasminogen
  pIC50: < 4.96

## CN(C)NCc1ccc(C(=O)Nc2ccc(Cl)cc2C(=O)Nc2ccc(Cl)cn2)cc1
[1]
  pIC50: < 4.96
Homo sapiens
  Activity: 1.5 µM
Serine protease 1
  pIC50: < 4.96
Prothrombin
  pIC50: < 4.96
Plasma kallikrein
  pIC50: 6.19
Coagulation factor X [2]
  pIC50: 9.05
[3]
  pIC50: < 4.96
[4]
  bioavailability: 4%
Plasminogen
  pIC50: < 4.96
Coagulation factor X [8]
  pKi: 9.52

## N=C1OCCN1Cc1ccc(C(=O)Nc2ccc(Cl)cc2C(=O)Nc2ccc(Cl)cn2)cc1
[1]
  pIC50: < 4.96
Oryctolagus cuniculus [9]
  Inhibition: 40%
Homo sapiens
  Activity: 0.56 µM
Serine protease 1
  pIC50: < 4.96
Oryctolagus cuniculus [10]
  Inhibition: 25%
Prothrombin
  pIC50: < 4.96
[11]
  clearance: 18.3 mL/min/kg
Rattus norvegicus [12]
  Volume of distribution: 13.6 L/kg
[13]
  half-life: 8.5 h
Plasma kallikrein
  pIC50: 6.25
[3]
  pIC50: < 4.96
[4]
  bioavailability: 44%
Plasminogen
  pIC50: < 4.96

## CN(C)Cc1ccc(C(=O)Nc2ccc(Cl)cc2C(=O)Nc2ccc(Cl)cn2)cc1
[1]
  pIC50: < 4.96
Homo sapiens
  Activity: 3.2 µM
Serine protease 1
  pIC50: < 4.96
Prothrombin
  pIC50: < 4.96
[11]
  clearance: 20.6 mL/min/kg
Rattus norvegicus [12]
  Volume of distribution: 32.9 L/kg
[13]
  half-life: 7.5 h
Plasma kallikrein
  pIC50: 6.30
[3]
  pIC50: < 4.96
[14]
  bioavailability: 100%
Plasminogen
  pIC50: < 4.96

## C/N=C(/N)N(C)Cc1ccc(C(=O)Nc2ccc(Cl)cc2C(=O)Nc2ccc(Cl)cn2)cc1
[1]
  pIC50: < 4.96
Homo sapiens
  Activity: 0.79 µM
Serine protease 1
  pIC50: < 4.96
Prothrombin
  pIC50: < 4.96
Plasma kallikrein
  pIC50: 6.10
Coagulation factor X [2]
  pIC50: 9.15
[3]
  pIC50: < 4.96
Plasminogen
  pIC50: < 4.96
Coagulation factor X [5]
  pKi: 9.70
